Results from US20050245399A1, “Pyrazole derivatives as herbicidal compositions containing them” (ISHIHARA SANGYO KAISHA, LTD., priority 2004, published 2005).

Legend:
Type in all cases: in vivo
[1] = system: barnyardgrass (Echinochloa crus-galli L.): ECHCG; experiment: Test Example 1 pre-emergence herbicidal activity, ECHCG; details: Rate 63 g a.i./ha, visually observed 20th to 23rd day after application
Summary of the method: (§1)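 Read-out: visual growth control (%, 0–100, 100 = complete kill) assessed 20 to 23 days post-treatment. Compound was applied pre-emergence by small sprayer, one day after sowing into upland soil pots, in 500 L/ha water.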

[2] = system: velvetleaf (Abutilon theophrasti): ABUTH; experiment: Test Example 1 pre-emergence herbicidal activity, ABUTH; details: Rate 63 g a.i./ha, visually observed 20th to 23rd day after application
Summary of the method: as §1

[3] = system: common cocklebur (Xanthium strumarium L.): XANST; experiment: Test Example 1 pre-emergence herbicidal activity, XANST; details: Rate 63 g a.i./ha, visually observed 20th to 23rd day after application
From the text: Upland field soil was put into a 1/170,000 ha pot, and seeds of various plants {1. barnyardgrass (Echinochloa crus-galli L.): ECHCG, 2. crabgrass (Digitaria sanguinalis L.): DIGSA, 3. green foxtail (Setaria viridis L.): SETVI, 4. redroot pigweed (Amaranthus retroflexus L.): AMARE, 5. prickly sida (Sida spinosa L.): SEDSP, 6. velvetleaf (Abutilon theophrasti): ABUTH, 7. common cocklebur (Xanthium strumarium L.): XANST, 8. rice (Oryza sativa L.): ORYSA, 9. wheat (Triticum aestivum L.): TRZAX, 10. corn (Zea mays L.): ZEAMX, 11. soybean (Glycine max Merr.): GLXMA} were sown. Then, one day after the sowing, a wettable powder or emulsifiable concentrate having the compound of the present invention formulated in accordance with a usual formulation method, was weighed so that the active ingredient would be a predetermined amount and diluted with water in an amount of 500 L/ha. The herbicide adjusted was applied by a small size sprayer for preemergence treatment. On the 20th to 23rd day after the application of the herbicide, the growth of the respective plants was visually observed, and the herbicidal effects were evaluated by growth controlling degrees (%) ranging from 0 (equivalent to the untreated control) to 100 (complete kill), whereby the results shown in Table 4, were obtained. Compound Nos. in Table 4 correspond to Compound Nos. in Table 1 and 2 given hereinbefore.

[4] = system: rice (Oryza sativa L.): ORYSA; experiment: Test Example 1 pre-emergence herbicidal activity, ORYSA; details: Rate 63 g a.i./ha, visually observed 20th to 23rd day after application
Summary of the method: as §1

[5] = system: barnyardgrass (Echinochloa crus-galli L.), ECHCG; experiment: Test Example 2 post-emergence (foliage treatment) herbicidal activity, ECHCG
Summary of the method: (§2)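 Post-emergence, upland soil pots; leaf stage at spray: ECHCG 1.1-2.1 / DIGSA 1.0-2.0 / AMARE 0.1-1.5 / ORYSA 1.0-2. WP or EC formulation, set active ingredient rate, 500 L/ha water + 0.1% v/v spreader. Visual rating at d20-23, % control 0-100.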

[6] = system: rice (Oryza sativa L.), ORYSA; experiment: Test Example 2 post-emergence (foliage treatment) herbicidal activity, ORYSA
Summary of the method: as §2

[7] = system: barnyardgrass (Echinochiloa oryzicola: ECHOR); experiment: Test Example 3 water application herbicidal activity (paddy), ECHOR; details: 63 g a.i./ha, water application under submerged condition at 0.5 leaf stage, visually observed 14th day after application; 0 = untreated control, 100 = complete kill
Summary of the method: (§3)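 Submerged application in flooded paddy soil (3–4 cm water); weeds treated at 0.5-leaf stage, transplanted rice 4 d after transplanting. Scored visually as % growth control: weeds at 14 d, rice at 21 d.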

[8] = system: japanese bulrush (Scirpus juncoides: SCPJO); experiment: Test Example 3 water application herbicidal activity (paddy), SCPJO; details: 63 g a.i./ha, water application under submerged condition at 0.5 leaf stage, visually observed 14th day after application; 0 = untreated control, 100 = complete kill
Summary of the method: as §3

[9] = system: japanese ribbon wapato (Sagittaria pygmaea: SA GPY); experiment: Test Example 3 water application herbicidal activity (paddy), SAGPY; details: 63 g a.i./ha, water application under submerged condition, tubers planted, visually observed 14th day after application; 0 = untreated control, 100 = complete kill
Summary of the method: as §3

[10] = system: rice (Oryza sativa L.: ORYSA); experiment: Test Example 3 water application herbicidal activity (paddy), transplanted rice ORYSA; details: 63 g a.i./ha, water application 4th day after transplantation of 2 leaf stage rice, visually observed 21st day after application; 0 = untreated control, 100 = complete kill
Summary of the method: as §3

Row | Compound | Pre-emergence Herbicidal Activity ECHCG (growth controlling degree) [1] [%] | Pre-emergence Herbicidal Activity ABUTH (growth controlling degree) [2] [%] | Pre-emergence Herbicidal Activity XANST (growth controlling degree) [3] [%] | Pre-emergence Herbicidal Activity ORYSA (growth controlling degree) [4] [%] | growth controlling degree, ECHCO ([5]; 125 g a.i./ha) [%] | growth controlling degree, ORYSA ([6]; 125 g a.i./ha) [%] | growth controlling degrees (%) ECHOR [7] [%] | growth controlling degrees (%) SCPJO [8] [%] | growth controlling degrees (%) SAGPY [9] [%] | growth controlling degrees (%) ORYSA [10] [%] | growth controlling degree, ECHCO ([5]; 63 g a.i./ha) [%] | growth controlling degree, ORYSA ([6]; 63 g a.i./ha) [%]
1 | Cn1nc(-c2c(F)cc(Cl)c(OC(F)F)c2N)c(Cl)c1OC(F)F [Compound 1-81, 3-chloro-6-[4-chloro-5-(difluoromethoxy)-1-methyl-1H-pyrazol-3-yl]-2-(difluoromethoxy)-5-fluorobenzenamine] | 90 | 100 | 60 | 20 | 100 | 70 | 100 | 100 | 95 | 35 | – | –
2 | COc1c(Cl)cc(F)c(-c2nn(C)c(OC(F)F)c2Cl)c1NC(=O)C=C(C)C [Compound 1-9] | 80 | 100 | 70 | 80 | – | – | 100 | 100 | 100 | 30 | 80 | 80
3 | COc1c(Cl)cc(F)c(-c2nn(C)c(OC(F)F)c2Cl)c1NC1CCCC1 [Compound 1-60] | 0 | 30 | – | 0 | – | – | 100 | 60 | 60 | 30 | 100 | 40
4 | COc1c(Cl)cc(F)c(-c2nn(C)c(OC(F)F)c2Cl)c1N(C=O)CC(=O)c1ccc(Cl)cc1 [Compound 1-13] | 80 | 100 | 50 | 70 | – | – | 95 | 40 | 0 | 10 | 80 | 70
5 | COc1c(Cl)cc(F)c(-c2nn(C)c(OC(F)F)c2Cl)c1N(C=O)C1CCCC1 [Compound 1-10] | 90 | 100 | 100 | 70 | – | – | 100 | 40 | 40 | 10 | 90 | 70
6 | COc1c(Cl)cc(F)c(-c2nn(C)c(OC(F)F)c2Cl)c1N(C)C=O [Compound 1-6] | 20 | 50 | – | 20 | – | – | 90 | 60 | 30 | 50 | 60 | 40
7 | COc1c(Cl)cc(F)c(-c2nn(C)c(OC(F)F)c2Cl)c1NC(C)C [Compound 1-59] | 60 | 95 | – | 50 | – | – | 100 | 80 | 60 | 40 | 100 | 40
8 | COc1c(Cl)cc(F)c(-c2nn(C)c(OC(F)F)c2Cl)c1N(C(=O)C=C(C)C)C(=O)C=C(C)C [Compound 1-11] | 70 | 100 | 30 | 40 | – | – | 100 | 40 | 40 | 35 | 70 | 40
9 | COc1c(Cl)cc(F)c(-c2nn(C)c(OC(F)F)c2Cl)c1N(C=O)CC(=O)c1ccccc1 [Compound 1-12] | 70 | 100 | 50 | 40 | – | – | 95 | 50 | 30 | 35 | 70 | 40
10 | CNc1c(OC)c(Cl)cc(F)c1-c1nn(C)c(OC(F)F)c1Cl [Compound 1-58] | 100 | 95 | – | 60 | – | – | 100 | 100 | 100 | 70 | 100 | 70
11 | COc1c(Cl)cc(F)c(-c2nn(C)c(OC(F)F)c2Cl)c1N(C=O)CC(C)=O [Compound 1-14] | 98 | 100 | 100 | 40 | – | – | 100 | 90 | 98 | 50 | 98 | 40
